Test results reported in US20090163549A1, “Pharmaceutical Composition Comprising an Amide Derivative” (priority 2005, published 2009).

Columns and labels:
human TRPV1 receptors = target: T1, human TRPV1 receptors (Homo sapiens, UniProt Q8NER1); assay: Inhibition of capsaicin-stimulated Ca2+ influx (Fluo-3, FDSS-3000) in CHO-K1 cells stably expressing human TRPV1 receptors; type: cell-based; conditions: CHO-K1 cells transfected with human TRPV1; capsaicin stimulation; Fluo-3 fluorescence
T1 construct: expressed in transfected cells; host or cells: CHO-K1
Description: CHO-K1 cells were transfected with human TRPV1 receptors and a cell culture stably expressing the receptor was seeded on a medium of alpha-MEM containing FBS(10%), HEPES (20 mM), geneticin (1 mg/mL) and antibiotic-antimycotic mixed solution(1%) in 96-well plates, and incubated at 37° C. and 5% CO2 for 2-3 days.
The medium was then substituted with Lording Buffer (20 mM HEPES, 115 mM NaCl, 5.4 mM KCl 0.8 mM MgCl2, 1.8 mM CaCl2, 13.8 mM D-glucose, 2.5 mM probenecid, pH 7.4) containing Fluo-3 AM (5 μM) and incubated at 37° C. and 5% CO2 for 1 hour. The test compounds were diluted to different concentrations and added to the plates after the incubated culture was washed with Wash Buffer (20 mM HEPES, 115 mM NaCl, 5.4 mM KCl 0.8 mM MgCl2, 5.0 mM CaCl2, 13.8 mM D-glucose, 2.5 mM probenecid, 0.1% BSA, pH 7.4) and placed at room temperature for 15 minutes.
The plate was set up in Functional Drug Screening System(FDSS)-3000(Hamamatsu Photonics K.K.) and amounts of Ca^2+ influx before and after capsaicin-stimulation were measured through changes in the fluorescence intensity of Fluo-3.
An inhibitory activity was evaluated by measuring fluorescence intensity in the presence of various concentrations of the test compounds and calculating their % inhibition on the basis that the maximum fluorescence intensity is 100% inhibition when stimulated by Wash Buffer, and 0% inhibition when stimulated by capsaicin
Data analysis and calculation of IC50 values were performed with Excel(Microsoft Corporation) and XLfit(idbs).

T1 sequence (Q8NER1 whole entry): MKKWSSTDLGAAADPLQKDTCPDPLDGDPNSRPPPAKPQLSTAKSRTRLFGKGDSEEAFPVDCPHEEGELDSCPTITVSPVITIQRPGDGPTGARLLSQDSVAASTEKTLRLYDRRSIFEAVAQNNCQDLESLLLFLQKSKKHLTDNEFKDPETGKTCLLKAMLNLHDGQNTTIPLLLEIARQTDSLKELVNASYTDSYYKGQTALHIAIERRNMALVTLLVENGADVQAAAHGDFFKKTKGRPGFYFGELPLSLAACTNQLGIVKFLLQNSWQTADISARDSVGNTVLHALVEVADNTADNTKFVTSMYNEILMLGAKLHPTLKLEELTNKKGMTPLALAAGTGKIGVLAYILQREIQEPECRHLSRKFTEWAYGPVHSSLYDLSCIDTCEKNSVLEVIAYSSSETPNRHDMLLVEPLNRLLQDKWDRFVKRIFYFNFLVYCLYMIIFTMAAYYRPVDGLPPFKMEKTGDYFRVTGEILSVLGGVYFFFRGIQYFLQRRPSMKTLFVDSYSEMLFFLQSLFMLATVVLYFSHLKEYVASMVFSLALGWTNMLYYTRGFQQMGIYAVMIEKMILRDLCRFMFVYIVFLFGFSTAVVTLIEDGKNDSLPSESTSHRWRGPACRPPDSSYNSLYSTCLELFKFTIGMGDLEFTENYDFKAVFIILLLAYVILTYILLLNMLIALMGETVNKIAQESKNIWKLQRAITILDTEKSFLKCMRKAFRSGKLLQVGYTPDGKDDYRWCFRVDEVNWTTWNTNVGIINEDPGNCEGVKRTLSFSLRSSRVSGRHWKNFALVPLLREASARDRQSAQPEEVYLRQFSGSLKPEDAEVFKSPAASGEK

SMILES	melting point	IC50 (human TRPV1 receptors)
CC(C)(C)c1ccc(NC(=O)c2ccc(C3OCCCO3)cc2)cc1 [Ia-1]	165 to 166 °C	0.176 µM
CC(C)(C)c1ccc(NC(=O)c2ccc(C3(C)OCCCO3)cc2)cc1 [Ia-2, N-(4-tert-butylphenyl)-4-(2-methyl-1,3-dioxane-2-yl)benzamide]	148 to 149 °C	0.297 µM
CC(C)(C)c1ccc(NC(=O)c2ccc(C3NCCS3)cc2)cc1 (centres unmarked) [Ib-1]	119 to 120 °C	0.21 µM
CC(C)(C)c1ccc(NC(=O)c2ccc(C3(C)NCCS3)cc2)cc1 (centres unmarked) [Ib-2]	152 to 153 °C	0.19 µM
CC(C)(C)c1ccc(NC(=O)c2ccc(C3(C)NCCO3)cc2)cc1 (centres unmarked) [Ic-1]	138 to 139 °C	0.25 µM
CC(C)(C)c1ccc(NC(=O)c2ccc(C3(C)OCCO3)cc2)cc1 [Ie-2]	180 to 189 °C	0.23 µM
CC(C)(C)c1ccc(NC(=O)c2ccc(C3=NCCS3)cc2)cc1 [If-1, N-(4-tert-butylphenyl)-4-(2-thiazolinyl)benzamide]	176 to 177 °C	0.006 µM
CC(C)(C)c1ccc(NC(=O)c2ccc(C3NOC(=O)N3)cc2)cc1 (centres unmarked) [Ih-1, N-(4-tert-butylphenyl)-4-(5-oxo-1,2,4-oxadiazolidine-3-yl)benzamide]	> 300 °C	
CON=C(C)c1ccc(C(=O)Nc2ccc(C(C)(C)C)cc2)cc1 [Ij-4, N-(4-tert-butylphenyl)-4-(1-methoxyiminoethyl)benzamide]	154 to 155 °C	0.163 µM
